According to the NIST ThermoML archive (doi:10.1021/je900596d):
± gives the expanded uncertainty stated by the source.

Settings: for mass density: Vibrating tube method

FC(F)=C(F)C(F)(F)F [hexafluoropropene]
Settings	mass density [kg/m3]	vapor or sublimation pressure [kPa]
355.18 K, 9543 kPa, Liquid	1138.93 ± 1.2	–
355.18 K, 9592.9 kPa, Liquid	1139.78 ± 1.2	–
355.18 K, 9645.5 kPa, Liquid	1140.58 ± 1.2	–
355.18 K, 9695.7 kPa, Liquid	1141.39 ± 1.2	–
355.18 K, 9747.1 kPa, Liquid	1142.23 ± 1.2	–
355.18 K, 9796.2 kPa, Liquid	1143.06 ± 1.2	–
355.18 K, 9846.2 kPa, Liquid	1143.79 ± 1.2	–
355.18 K, 9896.5 kPa, Liquid	1144.79 ± 1.2	–
355.18 K, 9947.2 kPa, Liquid	1145.37 ± 1.2	–
355.18 K, 9998.1 kPa, Liquid	1146.19 ± 1.2	–
355.24 K, Liquid, Closed cell (Static) method	–	2903 ± 5
355.27 K, 1.7 kPa, Fluid (supercritical or subcritical phases)	0.1 ± 0.03	–
355.27 K, 2.5 kPa, Fluid (supercritical or subcritical phases)	0.14 ± 0.03	–
355.27 K, 3.1 kPa, Fluid (supercritical or subcritical phases)	0.19 ± 0.03	–
355.27 K, 3.6 kPa, Fluid (supercritical or subcritical phases)	0.23 ± 0.03	–
355.27 K, 4.8 kPa, Fluid (supercritical or subcritical phases)	0.28 ± 0.03	–
355.27 K, 5.8 kPa, Fluid (supercritical or subcritical phases)	0.37 ± 0.03	–
355.27 K, 6.4 kPa, Fluid (supercritical or subcritical phases)	0.38 ± 0.03	–
355.27 K, 7.6 kPa, Fluid (supercritical or subcritical phases)	0.44 ± 0.03	–
355.27 K, 8.8 kPa, Fluid (supercritical or subcritical phases)	0.47 ± 0.03	–
355.27 K, 9.4 kPa, Fluid (supercritical or subcritical phases)	0.5 ± 0.03	–
355.27 K, 10 kPa, Fluid (supercritical or subcritical phases)	0.52 ± 0.03	–
355.27 K, 11.3 kPa, Fluid (supercritical or subcritical phases)	0.61 ± 0.03	–
355.27 K, 12.5 kPa, Fluid (supercritical or subcritical phases)	0.64 ± 0.03	–
355.27 K, 13.7 kPa, Fluid (supercritical or subcritical phases)	0.67 ± 0.03	–
355.27 K, 15 kPa, Fluid (supercritical or subcritical phases)	0.66 ± 0.03	–
355.27 K, 16 kPa, Fluid (supercritical or subcritical phases)	0.83 ± 0.03	–
355.27 K, 18.5 kPa, Fluid (supercritical or subcritical phases)	0.93 ± 0.03	–
355.27 K, 19.9 kPa, Fluid (supercritical or subcritical phases)	1.04 ± 0.03	–
355.27 K, 21.2 kPa, Fluid (supercritical or subcritical phases)	1.09 ± 0.03	–
355.27 K, 22.2 kPa, Fluid (supercritical or subcritical phases)	1.15 ± 0.03	–
355.27 K, 23.4 kPa, Fluid (supercritical or subcritical phases)	1.24 ± 0.03	–
355.27 K, 24.5 kPa, Fluid (supercritical or subcritical phases)	1.28 ± 0.03	–
355.27 K, 25.7 kPa, Fluid (supercritical or subcritical phases)	1.37 ± 0.03	–
355.27 K, 26.7 kPa, Fluid (supercritical or subcritical phases)	1.39 ± 0.03	–
355.27 K, 27.9 kPa, Fluid (supercritical or subcritical phases)	1.42 ± 0.03	–
355.27 K, 29.2 kPa, Fluid (supercritical or subcritical phases)	1.46 ± 0.03	–
355.27 K, 30.3 kPa, Fluid (supercritical or subcritical phases)	1.62 ± 0.03	–
355.27 K, 31.3 kPa, Fluid (supercritical or subcritical phases)	1.64 ± 0.03	–
355.27 K, 32.3 kPa, Fluid (supercritical or subcritical phases)	1.71 ± 0.03	–
355.27 K, 34.6 kPa, Fluid (supercritical or subcritical phases)	1.82 ± 0.03	–
355.27 K, 37.4 kPa, Fluid (supercritical or subcritical phases)	1.95 ± 0.03	–
355.27 K, 41.7 kPa, Fluid (supercritical or subcritical phases)	2.14 ± 0.03	–
355.27 K, 47.8 kPa, Fluid (supercritical or subcritical phases)	2.49 ± 0.03	–
355.27 K, 53.6 kPa, Fluid (supercritical or subcritical phases)	2.8 ± 0.03	–
355.27 K, 58 kPa, Fluid (supercritical or subcritical phases)	3.03 ± 0.03	–
355.27 K, 62.5 kPa, Fluid (supercritical or subcritical phases)	3.28 ± 0.03	–
355.27 K, 67.1 kPa, Fluid (supercritical or subcritical phases)	3.54 ± 0.03	–
355.27 K, 71.8 kPa, Fluid (supercritical or subcritical phases)	3.72 ± 0.03	–
355.27 K, 76 kPa, Fluid (supercritical or subcritical phases)	4.09 ± 0.03	–
355.27 K, 80.2 kPa, Fluid (supercritical or subcritical phases)	4.21 ± 0.03	–
355.27 K, 84.7 kPa, Fluid (supercritical or subcritical phases)	4.42 ± 0.03	–
355.27 K, 89.7 kPa, Fluid (supercritical or subcritical phases)	4.7 ± 0.03	–
355.27 K, 94.5 kPa, Fluid (supercritical or subcritical phases)	4.96 ± 0.03	–
355.27 K, 99.2 kPa, Fluid (supercritical or subcritical phases)	5.14 ± 0.03	–
355.27 K, 108.4 kPa, Fluid (supercritical or subcritical phases)	5.69 ± 0.03	–
355.27 K, 121.7 kPa, Fluid (supercritical or subcritical phases)	6.32 ± 0.03	–
355.27 K, 136.3 kPa, Fluid (supercritical or subcritical phases)	7.14 ± 0.03	–
355.27 K, 150.1 kPa, Fluid (supercritical or subcritical phases)	7.91 ± 0.04	–
355.27 K, 175.9 kPa, Fluid (supercritical or subcritical phases)	9.29 ± 0.04	–
355.27 K, 189 kPa, Fluid (supercritical or subcritical phases)	9.98 ± 0.04	–
355.27 K, 202.9 kPa, Fluid (supercritical or subcritical phases)	10.67 ± 0.04	–
355.27 K, 215.8 kPa, Fluid (supercritical or subcritical phases)	11.37 ± 0.04	–
355.27 K, 229.6 kPa, Fluid (supercritical or subcritical phases)	12.15 ± 0.04	–
355.27 K, 243.8 kPa, Fluid (supercritical or subcritical phases)	12.89 ± 0.04	–
355.27 K, 256.5 kPa, Fluid (supercritical or subcritical phases)	13.54 ± 0.04	–
355.27 K, 269.4 kPa, Fluid (supercritical or subcritical phases)	14.27 ± 0.04	–
355.27 K, 282.8 kPa, Fluid (supercritical or subcritical phases)	15.02 ± 0.04	–
355.27 K, 296.5 kPa, Fluid (supercritical or subcritical phases)	15.74 ± 0.04	–
355.27 K, 310.2 kPa, Fluid (supercritical or subcritical phases)	16.52 ± 0.04	–
355.27 K, 323.9 kPa, Fluid (supercritical or subcritical phases)	17.3 ± 0.04	–
355.27 K, 337.3 kPa, Fluid (supercritical or subcritical phases)	18.03 ± 0.04	–
355.27 K, 350.9 kPa, Fluid (supercritical or subcritical phases)	18.72 ± 0.04	–
355.27 K, 364 kPa, Fluid (supercritical or subcritical phases)	19.44 ± 0.04	–
355.27 K, 377.5 kPa, Fluid (supercritical or subcritical phases)	20.18 ± 0.04	–
355.27 K, 390.9 kPa, Fluid (supercritical or subcritical phases)	20.91 ± 0.04	–
355.27 K, 410.7 kPa, Fluid (supercritical or subcritical phases)	22.1 ± 0.04	–
355.27 K, 423.7 kPa, Fluid (supercritical or subcritical phases)	22.78 ± 0.05	–
355.27 K, 436.7 kPa, Fluid (supercritical or subcritical phases)	23.55 ± 0.05	–
355.27 K, 449.9 kPa, Fluid (supercritical or subcritical phases)	24.26 ± 0.05	–
355.27 K, 463 kPa, Fluid (supercritical or subcritical phases)	25.02 ± 0.05	–
355.27 K, 475.5 kPa, Fluid (supercritical or subcritical phases)	25.74 ± 0.05	–
355.27 K, 489.9 kPa, Fluid (supercritical or subcritical phases)	26.57 ± 0.05	–
355.27 K, 511.2 kPa, Fluid (supercritical or subcritical phases)	27.76 ± 0.05	–
355.27 K, 534.4 kPa, Fluid (supercritical or subcritical phases)	29.14 ± 0.05	–
355.27 K, 558.1 kPa, Fluid (supercritical or subcritical phases)	30.53 ± 0.05	–
355.27 K, 570.3 kPa, Fluid (supercritical or subcritical phases)	31.19 ± 0.05	–
355.27 K, 593.4 kPa, Fluid (supercritical or subcritical phases)	32.6 ± 0.06	–
355.27 K, 605.4 kPa, Fluid (supercritical or subcritical phases)	33.29 ± 0.06	–
355.27 K, 629.1 kPa, Fluid (supercritical or subcritical phases)	34.75 ± 0.06	–
355.27 K, 652.5 kPa, Fluid (supercritical or subcritical phases)	36.04 ± 0.06	–
355.27 K, 675.6 kPa, Fluid (supercritical or subcritical phases)	37.5 ± 0.06	–
355.27 K, 698.5 kPa, Fluid (supercritical or subcritical phases)	38.93 ± 0.06	–
355.27 K, 710.6 kPa, Fluid (supercritical or subcritical phases)	39.6 ± 0.06	–
355.27 K, 733.2 kPa, Fluid (supercritical or subcritical phases)	40.98 ± 0.07	–
355.27 K, 755.9 kPa, Fluid (supercritical or subcritical phases)	42.45 ± 0.07	–
355.27 K, 778.4 kPa, Fluid (supercritical or subcritical phases)	43.82 ± 0.07	–
355.27 K, 800.7 kPa, Fluid (supercritical or subcritical phases)	45.25 ± 0.07	–
355.27 K, 822.7 kPa, Fluid (supercritical or subcritical phases)	46.65 ± 0.07	–
355.27 K, 844.7 kPa, Fluid (supercritical or subcritical phases)	48.08 ± 0.07	–
355.27 K, 866.4 kPa, Fluid (supercritical or subcritical phases)	49.39 ± 0.08	–
355.27 K, 887.6 kPa, Fluid (supercritical or subcritical phases)	50.79 ± 0.08	–
355.27 K, 909.3 kPa, Fluid (supercritical or subcritical phases)	52.17 ± 0.08	–
355.27 K, 921.7 kPa, Fluid (supercritical or subcritical phases)	53.01 ± 0.08	–
355.27 K, 942.8 kPa, Fluid (supercritical or subcritical phases)	54.34 ± 0.08	–
355.27 K, 963 kPa, Fluid (supercritical or subcritical phases)	55.68 ± 0.08	–
355.27 K, 985.5 kPa, Fluid (supercritical or subcritical phases)	57.29 ± 0.09	–
355.27 K, 1007.7 kPa, Fluid (supercritical or subcritical phases)	58.71 ± 0.09	–
355.27 K, 1053.4 kPa, Fluid (supercritical or subcritical phases)	61.79 ± 0.09	–
355.27 K, 1076.3 kPa, Fluid (supercritical or subcritical phases)	63.38 ± 0.09	–
355.27 K, 1097.4 kPa, Fluid (supercritical or subcritical phases)	64.83 ± 0.1	–
355.27 K, 1119.1 kPa, Fluid (supercritical or subcritical phases)	66.35 ± 0.1	–
355.27 K, 1140.9 kPa, Fluid (supercritical or subcritical phases)	67.89 ± 0.1	–
355.27 K, 1162.7 kPa, Fluid (supercritical or subcritical phases)	69.42 ± 0.1	–
355.27 K, 1184.6 kPa, Fluid (supercritical or subcritical phases)	70.94 ± 0.1	–
355.27 K, 1205.7 kPa, Fluid (supercritical or subcritical phases)	72.55 ± 0.11	–
355.27 K, 1226.6 kPa, Fluid (supercritical or subcritical phases)	74.03 ± 0.11	–
355.27 K, 1248.5 kPa, Fluid (supercritical or subcritical phases)	75.63 ± 0.11	–
355.27 K, 1268.8 kPa, Fluid (supercritical or subcritical phases)	77.12 ± 0.11	–
355.27 K, 1291.7 kPa, Fluid (supercritical or subcritical phases)	78.82 ± 0.12	–
355.27 K, 1314.5 kPa, Fluid (supercritical or subcritical phases)	80.53 ± 0.12	–
355.27 K, 1336.6 kPa, Fluid (supercritical or subcritical phases)	82.25 ± 0.12	–
355.27 K, 1358.9 kPa, Fluid (supercritical or subcritical phases)	83.95 ± 0.12	–
355.27 K, 1380.8 kPa, Fluid (supercritical or subcritical phases)	85.69 ± 0.13	–
355.27 K, 1401.7 kPa, Fluid (supercritical or subcritical phases)	87.28 ± 0.13	–
355.27 K, 1423 kPa, Fluid (supercritical or subcritical phases)	89.04 ± 0.13	–
355.27 K, 1445 kPa, Fluid (supercritical or subcritical phases)	90.76 ± 0.13	–
355.27 K, 1465.4 kPa, Fluid (supercritical or subcritical phases)	92.28 ± 0.13	–
355.27 K, 1486.6 kPa, Fluid (supercritical or subcritical phases)	94.07 ± 0.14	–
355.27 K, 1509.1 kPa, Fluid (supercritical or subcritical phases)	95.9 ± 0.14	–
355.27 K, 1531 kPa, Fluid (supercritical or subcritical phases)	97.69 ± 0.14	–
355.27 K, 1552.1 kPa, Fluid (supercritical or subcritical phases)	99.45 ± 0.15	–
355.27 K, 1573.2 kPa, Fluid (supercritical or subcritical phases)	101.27 ± 0.15	–
